This is an account of results in patent US20220211692A1, “Modulators of the Cystic Fibrosis Transmembrane Conductance Regulator Protein and Methods of Use” (AbbVie Global Enterprises Ltd., priority 2021, published 2022).

One test concerns the target T1, F508del/F508del CFTR (Homo sapiens, UniProt P13569, DEL508-508).
T1 construct: cells isolated from CF patients with the homozygous mutation; endogenous in cells; host or cells: primary human bronchial epithelial (hBE) cells from CF patients homozygous for F508del
Briefly: Trans-Epithelial Current Clamp (TECC) assay using primary human bronchial epithelial cells. The test is classed as cell-based. The note with it: for Emax (% Dual): maximum percent activity relative to positive control (co-corrector 0.15 μM + potentiator 0.45 μM = 100%); for EC50: primary hBE cells F508del/F508del, test corrector with co-corrector and potentiator, 18-24 hours, equivalent CFTR current. The source says: A cell-based assay was developed using the primary human bronchial epithelial cells (hBE cells) with F508del/F508del CFTR and other mutations.
Primary human bronchial epithelial (hBE) cells from CFTR patients with homozygous F508del/F508del mutation were expanded from 1×10^6 to 250×10^6 cells (Neuberger, T et al., 2011, Methods Mol Biol 741:39-54). For this purpose, cells isolated from CF patients with the homozygous mutation, procured from the CF center tissue procurement and cell culture core at the Marsico Lung Institute at UNC (Randell), the Cystic Fibrosis translational research center at McGill University (University), and Rosalind Franklin University Medical School (RFUMS) were seeded onto 24 well Corning (Cat #3378) filter plates that were coated with 3T3 conditioned media and grown at an air-liquid interface for 35 days using an Ultroser® G supplemented differentiation media. All the primary human bronchial epithelial cells were collected in accordance with institutional review board approval protocols. Apical surface mucus was removed 72 hours before the experiment by incubating the apical surface of the cells for 30 minutes with 3 mM dithiothreitol (DTT) prepared in Dulbecco's phosphate buffered saline (DPBS) with Ca^2+ and Mg^2+. This was followed with aspiration of the mucus from the apical surface along with DPBS. The apical surface was re-washed with phosphate buffered saline (PBS) incubated for 30 minutes followed with aspiration. These hBE cells were then incubated with the desired concentrations of the test C2 corrector compounds along with co-corrector, 4-[(2R,4R)-4-({[1-(2,2-difluoro-1,3-benzodioxol-5-yl)cyclopropyl]carbonyl}amino)-7-(difluoromethoxy)-3,4-dihydro-2H-chromen-2-yl]benzoic acid and potentiator, (5-{3-amino-5-[4-(trifluoromethoxy)benzene-1-sulfonyl]pyridin-2-yl}-1,3,4-oxadiazol-2-yl)methanol, for 18-24 hours at 37° C., 5% CO2. The desired concentrations of the correctors and potentiator compounds were prepared from the 10 mM stocks in differentiation media and were always applied on the basolateral side of the epithelial cells. We also used an assay format where a fixed concentration of potentiator was added chronically along with the corrector compounds. This chronic treatment with the potentiator helped eliminate any interaction that might happen with CFTR modulators (correctors and potentiators) and thereby determined the true efficacy of the modulator combinations reflective of clinical relevance.
The assay uses a Transepithelial Current Clamp (TECC) (Vu, C B et al., 2017; J Med Chem 60:458-473) instrument that can measure the functionality of the mutated channel by measuring the equivalent CFTR current (IEQ) generated by the polarized primary epithelial cells. We used a TECC-24 with a 24-channel electrode manifold allowing for the simultaneous measurement of the transepithelial voltage, VT, and transepithelial resistance, RT, under current clamp conditions, from 24 filters using a 24 well Costar filter plate. The design of the filters in the 24 well filter plates was exactly the same as the design of an individual Transwell filter used in the classical Ussing Chamber with a surface area of 0.33 cm^2. Each measured VT values were corrected for the electrode offset potential measured using buffer alone in a separate plate, and each measured RT values were then corrected for the combined solution series and empty filter resistances. The corrected VT and RT values were then used to calculate the equivalent current, IEQ using Ohm's law (IEQ=VT/RT). The area under the curve (AUC) for the time period between the forskolin peak IEQ response and at the time of bumetanide addition was also calculated using a one-third trapezoid method, in addition to calculating the IEQ. The assay was run in a 24-well format and all 24-wells were measured at the same time point giving a higher throughput for this assay. […]

The next test has as its target T2, F508delCFTR (Homo sapiens, UniProt P13569, DEL508-508).
T2 construct: expressed in transfected cells; host or cells: CFBE41o- human lung derived epithelial cell line, doxycycline-induced expression
The test can be described thus: Cell Surface Expression-Horse Radish Peroxidase (CSE-HRP) assay in CFBE41o-F508delCFTR-HRP cells. The note with it: for EC50: CFBE41o-F508delCFTR-HRP cells, 18-24 hours at 33° C.; for Emax / Maximum % activity (with co-corrector): normalized to on-plate positive control; for Emax: read-out: Maximum % activity (without co-corrector). It is filed as cell-based. The method, then:
A cellular assay for measuring the F508delCFTR cell surface expression after correction with test compounds either without or with a co-corrector (2 μM of 3-[(2R,4R)-4-({[1-(2,2-difluoro-1,3-benzodioxol-5-yl)cyclopropyl]carbonyl}amino)-7-methoxy-3,4-dihydro-2H-chromen-2-yl]benzoic acid), was developed in human lung derived epithelial cell line (CFBE41o-) (Veit G et al, (2012) Mol Biol Cell. 23(21): 4188-4202). The development was achieved by expressing the F508delCFTR mutation along with a horseradish peroxidase (HRP) in the fourth exofacial loop, and then measuring the HRP activity using luminescence readout from these cells, CFBE41o-F508delCFTR-HIRP, that were incubated overnight with the test corrector compounds, either without or with the co-corrector. For this primary assay, the CFBE41o-F508delCFTR-HRP cells were plated in 384-well plates (Greiner Bio-one; Cat 781080) at 4,000 cells/well along with 0.5 μg/mL doxycycline to induce the F508delCFTR-HRP expression and further incubated at 37° C., […] for 68-72 hours. The test compounds were then added either without or with a co-corrector at the required concentrations and further incubated for 18-24 hours at 33° C. The highest concentration tested was 20 μM or 30 μM (GI-1 to GIII-36) with an 8-point concentration response curve using a 3-fold dilution in both the test compound without or with the co-corrector. Three replicate plates were run to determine one EC50. All plates contained negative controls (dimethyl sulfoxide, DMSO) and positive control (2 μM or 3 μM (GI-1 to GIII-36) of 3-[(2R,4R)-4-({[1-(2,2-difluoro-1,3-benzodioxol-5-yl)cyclopropyl]carbonyl}amino)-7-methoxy-3,4-dihydro-2H-chromen-2-yl]benzoic acid) as well as on-plate concentration response of the positive control. Post incubation, the plates were washed 5× times with Dulbecco's phosphate buffered saline (DPBS), followed by the addition of the HRP substrate, luminol (50 μL), and measuring the HRP activity using luminescence readout on EnVision® Multilabel Plate Reader (Perkin Elmer; product number 2104-0010). The raw counts from the experiment were analyzed using Accelrys® Assay Explorer v3.3.
Z′ greater than 0.5 was used as passing quality control criteria for the plates. The Z′ is defined as:
1−[3*SDPositive Control+3*SDNegative Control/Absolute(MeanPositive Control−MeanNegative Control)]
The % activity measured at each of the 8 test concentrations of the test compound added either without or with a co-corrector (2 μM or 3 μM (GI-1 to GIII-36) of 3-[(2R,4R)-4-({[1-(2,2-difluoro-1,3-benzodioxol-5-yl)cyclopropyl]carbonyl}amino)-7-methoxy-3,4-dihydro-2H-chromen-2-yl]benzoic acid) was normalized to the on-plate positive control using the following formulae:
% activity (Test compound without co-corrector)=[(test compound without co-corrector response−DMSO response)/(positive control response−DMSO response)]*100
% activity (Test compound with co-corrector)=[(test compound with co-corrector response−DMSO response)/(positive control response−DMSO response)]*100
The maximum % activity achieved for the test compound either without or with a co-corrector at any tested concentration is presented in Table 3 along with the respective EC50's calculated using the following general sigmoidal curve with variable Hill slope equation (described as Model 42 in the Accelrys® Assay Explorer v3.3 software):
General sigmoidal curve with concentration, response, top, bottom, EC50 and Hill slope. This model describes a sigmoidal curve with an adjustable baseline, a. The equation can be used to fit curves where response is either increasing or decreasing with respect to the independent variable, “x”.

Setting [1] is: with co-corrector 2 μM, read-out: EC50 (with co-corrector).
The mark [2] stands for this setting: without co-corrector, read-out: EC50 (without co-corrector).

Like-named read-outs stand apart in the source and are kept apart here. A value given as a limit tells only on which side of the number the result lay.

T2 sequence (P13569 with tags, fused parts or gaps DEL508-508): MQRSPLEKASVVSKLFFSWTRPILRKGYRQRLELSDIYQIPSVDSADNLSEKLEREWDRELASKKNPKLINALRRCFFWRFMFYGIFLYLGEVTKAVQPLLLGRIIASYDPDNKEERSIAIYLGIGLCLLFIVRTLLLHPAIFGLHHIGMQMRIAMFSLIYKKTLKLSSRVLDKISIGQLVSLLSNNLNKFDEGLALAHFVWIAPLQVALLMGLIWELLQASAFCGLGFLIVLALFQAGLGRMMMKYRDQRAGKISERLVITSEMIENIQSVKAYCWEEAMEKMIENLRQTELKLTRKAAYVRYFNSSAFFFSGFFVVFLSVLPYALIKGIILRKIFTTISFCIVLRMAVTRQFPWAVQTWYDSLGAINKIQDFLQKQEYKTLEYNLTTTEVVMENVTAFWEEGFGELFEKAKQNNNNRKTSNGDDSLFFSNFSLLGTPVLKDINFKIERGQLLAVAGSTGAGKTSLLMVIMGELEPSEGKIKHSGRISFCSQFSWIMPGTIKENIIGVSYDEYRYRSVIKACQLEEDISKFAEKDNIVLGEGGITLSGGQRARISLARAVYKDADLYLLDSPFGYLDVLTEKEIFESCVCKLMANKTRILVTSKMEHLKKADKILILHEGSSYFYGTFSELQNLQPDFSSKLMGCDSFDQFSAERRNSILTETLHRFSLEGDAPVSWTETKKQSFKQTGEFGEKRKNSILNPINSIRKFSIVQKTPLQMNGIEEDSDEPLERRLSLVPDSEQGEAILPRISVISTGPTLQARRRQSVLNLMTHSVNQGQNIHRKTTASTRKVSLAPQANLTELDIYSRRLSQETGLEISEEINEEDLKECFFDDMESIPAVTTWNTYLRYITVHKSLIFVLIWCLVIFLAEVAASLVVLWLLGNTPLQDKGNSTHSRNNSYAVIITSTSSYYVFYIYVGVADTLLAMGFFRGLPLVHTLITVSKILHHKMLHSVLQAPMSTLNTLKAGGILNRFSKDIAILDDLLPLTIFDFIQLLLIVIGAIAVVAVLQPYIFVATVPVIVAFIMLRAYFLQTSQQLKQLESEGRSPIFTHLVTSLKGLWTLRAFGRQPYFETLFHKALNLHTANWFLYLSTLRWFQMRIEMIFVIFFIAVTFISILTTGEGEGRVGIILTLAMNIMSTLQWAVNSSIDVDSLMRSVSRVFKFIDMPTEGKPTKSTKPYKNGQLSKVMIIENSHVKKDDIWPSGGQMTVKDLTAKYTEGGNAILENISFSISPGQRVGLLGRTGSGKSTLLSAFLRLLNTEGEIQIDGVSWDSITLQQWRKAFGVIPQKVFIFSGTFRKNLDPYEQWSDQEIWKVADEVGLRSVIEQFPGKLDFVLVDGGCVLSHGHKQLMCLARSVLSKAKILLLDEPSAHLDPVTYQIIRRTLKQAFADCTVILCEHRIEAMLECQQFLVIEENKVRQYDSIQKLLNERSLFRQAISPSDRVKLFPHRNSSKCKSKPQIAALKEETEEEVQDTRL
T1 sequence (P13569 with tags, fused parts or gaps DEL508-508): as above

On to `CCOc1ccc(C)cc1[C@@]1(C(=O)NS(=O)(=O)c2cccc3nc(C)ccc23)CCCO1` (single isomer, unassigned) [Example 2], for which the “Emax (% Dual)” value on F508del/F508del CFTR is 318 % Dual. Further, the EC50 was 0.0825 µM at F508del/F508del CFTR, 0.78 µM on F508delCFTR (setting [1]) and 1.54 µM at F508delCFTR (setting [2]). Further, on F508delCFTR (without co-corrector), the Emax was 602%.
For `COc1ccc(C)cc1[C@]1(C(=O)NS(=O)(=O)c2cccc3nc(C)ccc23)CC[C@H](c2ccccc2)O1` [Example 11, (2S,5R)-2-(2-methoxy-5-methylphenyl)-N-(2-methylquinoline-5-sulfonyl)-5-phenyloxolane-2-carboxamide] the same measures were 158 % Dual, 0.0171 µM, 1.19 µM, 1.11 µM and 542%.
For `CCOc1ccc(C)cc1[C@@]1(C(=O)NS(=O)(=O)c2cccc3nc(C4CC4)ccc23)CCCO1` [Example 6, (2R)—N-(2-cyclopropylquinoline-5-sulfonyl)-2-(2-ethoxy-5-methylphenyl)oxolane-2-carboxamide] the same measures were 235 % Dual, 0.0195 µM, 1 µM, 1.36 µM and 712%.
For `COc1cccc([C@@H]2CO[C@@](C(=O)NS(=O)(=O)c3cccc4nc(C)ccc34)(c3cc(C)ccc3OC)C2)c1` [Example 42, (2R,4R)-2-(2-methoxy-5-methylphenyl)-4-(3-methoxyphenyl)-N-(2-methylquinoline-5-sulfonyl)oxolane-2-carboxamide] the same measures were 237 % Dual, 0.0111 µM, 0.57 µM, 1.12 µM and 751%.
`COc1ccc([C@@H]2CO[C@@](C(=O)NS(=O)(=O)c3cccc4nc(C)ccc34)(c3cc(C)ccc3OC)C2)cc1` [Example 44, (2R,4R)-2-(2-methoxy-5-methylphenyl)-4-(4-methoxyphenyl)-N-(2-methylquinoline-5-sulfonyl)oxolane-2-carboxamide]: the “Emax (% Dual)” value on F508del/F508del CFTR amounted to 335 % Dual. For the same molecule, the concentration giving a half-maximal response (EC50) on F508del/F508del CFTR came to 0.0116 µM; on F508delCFTR (setting [1]), 0.3 µM; on F508delCFTR (setting [2]), 0.6 µM. At F508delCFTR (without co-corrector), the Emax was 512%.
Regarding `CCOc1ccc(C)cc1[C@]1(C(=O)NS(=O)(=O)c2cccc3nc(C)ccc23)CCCO1` [Example 1, (2S)-2-(2-ethoxy-5-methylphenyl)-N-(2-methylquinoline-5-sulfonyl)oxolane-2-carboxamide], the “Emax (% Dual)” value on F508del/F508del CFTR was 226 % Dual. Moreover, the concentration for a half-maximal effect (EC50) is 1.71 µM at F508del/F508del CFTR, 3.78 µM at F508delCFTR (setting [1]) and 4.94 µM on F508delCFTR (setting [2]). In addition, the “Maximum % activity (with co-corrector)” value on F508delCFTR (with co-corrector 2 μM) worked out at 546%. Further, the Emax at F508delCFTR (without co-corrector) worked out at 233%.
`COc1ccc(C)cc1[C@@]1(C(=O)NS(=O)(=O)c2cccc3nc(C)ccc23)C[C@H](OC)CO1` [Example 28, (2R,4S)-4-methoxy-2-(2-methoxy-5-methylphenyl)-N-(2-methylquinoline-5-sulfonyl)oxolane-2-carboxamide]: the “Emax (% Dual)” value at F508del/F508del CFTR came out at 182 % Dual. The EC50 on F508del/F508del CFTR stood at 1.1 µM; on F508delCFTR (setting [1]) it was 3.47 µM; on F508delCFTR (setting [2]), 4.11 µM. Moreover, the “Maximum % activity (with co-corrector)” value at F508delCFTR (with co-corrector 2 μM) came to 513%. The Emax at F508delCFTR (without co-corrector) stood at 180%.
Consider `COc1ccc(C)cc1[C@]1(C(=O)NS(=O)(=O)c2cccc3nc(C)ccc23)CC2(CC2)CO1` [Example 16, (6S)-6-(2-methoxy-5-methylphenyl)-N-(2-methylquinoline-5-sulfonyl)-5-oxaspiro[2.4]heptane-6-carboxamide], for which the “Emax (% Dual)” value on F508del/F508del CFTR came out at 110 % Dual. Moreover, the EC50 is more than 0.3 µM at F508del/F508del CFTR, 2.55 µM on F508delCFTR (setting [1]) and 4.8 µM at F508delCFTR (setting [2]). At F508delCFTR (with co-corrector 2 μM), the “Maximum % activity (with co-corrector)” value is given as 444%. Moreover, the Emax on F508delCFTR (without co-corrector) was 147%.
In the case of `COc1ccc(C)cc1[C@@]1(C(=O)NS(=O)(=O)c2cccc3nc(C)ccc23)CC2(CC2)CO1` [Example 15, (6R)-6-(2-methoxy-5-methylphenyl)-N-(2-methylquinoline-5-sulfonyl)-5-oxaspiro[2.4]heptane-6-carboxamide], the “Emax (% Dual)” value on F508del/F508del CFTR is 178 % Dual. Also, the results for the concentration for a half-maximal effect (EC50) on F508del/F508del CFTR, at F508delCFTR (setting [1]) and on F508delCFTR (setting [2]) were 0.123 µM, 1.01 µM and 1.51 µM, respectively. For the same molecule, the “Maximum % activity (with co-corrector)” value on F508delCFTR (with co-corrector 2 μM) was 708%. Moreover, on F508delCFTR (without co-corrector), the Emax worked out at 307%.
